Where two headings read alike, the source gives them in different places.
Assays:
human AChE [1] = target: T1, human AChE (Homo sapiens, UniProt P22303); settings: Table 1, bisuracils 1a–f, cited from earlier work; for AChE Selectivity: (IC50 BuChE)/(IC50 AChE)
T1 construct: purchased Sigma-Aldrich

BChE from human plasma [2] = target: T2, BChE from human plasma (Homo sapiens, UniProt P06276); settings: Table 1; bisuracils 1a–f; read-out: IC50 BuChE; cited from earlier work
T2 construct: butyrylcholiesterase from human plasma; purchased Sigma-Aldrich; host or cells: human plasma

human AChE [3] = target: T1, human AChE; experiment: In vitro cholinesterase inhibition (Ellman), AChE; type: biochemical; settings: for IC50: read-out: IC50 AChE; for AChE Selectivity: (IC50 BuChE)/(IC50 AChE)
Procedure: (§1) Inhibitory activities of the tested compounds against AChE and BChE were measured according to Ellman et al.. Enzyme-catalysed hydrolysis of ATCHh was carried out at 25 °C in 0.1 M phosphate buffer (pH 8.0) containing 0.25 U AChE, 1 mM ATCHh as substrates, and 0.1 mM of DTNB. In experiments with BuChE, 0.1 M phosphate buffer (pH 7.0) and BuTChh as a substrate were used. The tested compounds were pre-incubated with the enzyme for two minutes prior to the addition of the substrate and the subsequent recording of hydrolysis kinetics. […] A sample without an inhibitor was used as a control (100% cholinesterase activity). A sample without a substrate was used as a blank. Experiments were performed in triplicate.

BChE from human plasma [4] = target: T2, BChE from human plasma; experiment: In vitro cholinesterase inhibition (Ellman), BuChE; type: biochemical; settings: read-out: IC50 BuChE
Procedure: as §1

[5] = system: mice poisoned with 2×LD50 of POX; experiment: Protection against POX toxicity (pre-treatment); type: in vivo; settings: for relative risk of death (RRD): Cox analysis over 10 h
Procedure: The concept of using reversible AChE inhibition as a preventive strategy to enhance the efficacy of traditional antidotes in OP poisoning is a well-established principle. This study explores the potential of bisuracil 2b as a preventive agent to protect AChE from irreversible inhibition caused by paraoxon (POX), a model OP. […] Following POX administration, the standard antidote atropine was given at a dose of 15 mg/kg within one minute. […] Increasing the dose of bisuracil 2b reduced the protective effect in POX poisoned animals (Table 3).
We also estimated the relative risk of death (RRD) as a function of precocity (from min to hours) over a period of 10 h by Cox survival analysis. Statistical differences in the number of surviving animals between experimental groups were tested using the Cox–Mantel multisample logarithmic rank criterion. It was shown that, in mice exposed to 0.42 mg/kg of POX, RRD = 1 (Figure 5). However, in animals that received atropine within 1 min after poisoning, POX-induced mortality was lower (RRD = 0.5; Figure 5).
The tested compound was administered via i.p. before POX injection.

[6] = system: scopolamine-induced amnesia in mice; experiment: Novel object recognition test, scopolamine-induced amnesia; type: in vivo
Procedure: This study explored the ability of bisuracil 3c to counteract scopolamine-induced amnesia in mice, utilising behavioural assessments conducted through the novel object recognition test. […] The induction of amnesia was facilitated by the i.p. injection of scopolamine (1.5 mg/kg) 50 min prior to testing. […]. An equivalent amount of the vehicle was administered to a control group of mice.
The experiments were carried out on CD1 mice of both sexes weighing 24–25 g. The novel object recognition test was conducted over a period of three days. On the first day, the mice were placed individually into the square testing arena with black walls (50 cm in length, 50 cm in width, 38 cm in height) for 5 min without any objects. On the second day, two identical objects were placed in the central part of the arena, and the mice were allowed to explore the objects for 10 min. Test compounds were administered prior to testing on the second day. The induction of amnesia was facilitated by i.p. injection of scopolamine (1.5 mg/kg) 50 min prior to testing. Tested compounds were administered i.p. 30 min prior to testing. The control group of animals was administered with an equivalent amount of vehicle. On the third day, the mice were presented with a familiar and a novel object for 10 min. The time of exploration of each object by the mice was recorded using a digital camera. After each test, the arena was cleaned with a solution of 70% ethanol. At the end of the test, the preference index (exploration of novel object/total exploration time × 100) was calculated.

AChE = settings: cited from earlier work
[7] = Table 1, recombinant human AChE, 25 °C, pH 8.0
[8] = Table 1, BChE from human plasma, pH 7.0

T2 sequence (P06276 29-602): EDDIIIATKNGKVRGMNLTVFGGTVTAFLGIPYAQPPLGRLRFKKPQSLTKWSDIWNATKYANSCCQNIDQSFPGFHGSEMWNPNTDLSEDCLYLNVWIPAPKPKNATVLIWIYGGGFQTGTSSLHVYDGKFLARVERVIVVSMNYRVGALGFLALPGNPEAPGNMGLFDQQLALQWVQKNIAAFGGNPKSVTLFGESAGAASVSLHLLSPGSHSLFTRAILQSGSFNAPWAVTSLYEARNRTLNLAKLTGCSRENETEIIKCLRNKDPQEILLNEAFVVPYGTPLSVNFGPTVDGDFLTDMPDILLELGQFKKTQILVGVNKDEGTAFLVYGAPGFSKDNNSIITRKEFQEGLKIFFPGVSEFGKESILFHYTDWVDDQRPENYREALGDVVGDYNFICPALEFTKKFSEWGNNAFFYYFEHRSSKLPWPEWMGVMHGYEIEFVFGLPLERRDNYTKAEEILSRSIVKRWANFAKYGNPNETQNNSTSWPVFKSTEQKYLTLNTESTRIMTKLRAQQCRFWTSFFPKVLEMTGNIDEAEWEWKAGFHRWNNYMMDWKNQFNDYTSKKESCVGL
T1 sequence (P22303 32-614): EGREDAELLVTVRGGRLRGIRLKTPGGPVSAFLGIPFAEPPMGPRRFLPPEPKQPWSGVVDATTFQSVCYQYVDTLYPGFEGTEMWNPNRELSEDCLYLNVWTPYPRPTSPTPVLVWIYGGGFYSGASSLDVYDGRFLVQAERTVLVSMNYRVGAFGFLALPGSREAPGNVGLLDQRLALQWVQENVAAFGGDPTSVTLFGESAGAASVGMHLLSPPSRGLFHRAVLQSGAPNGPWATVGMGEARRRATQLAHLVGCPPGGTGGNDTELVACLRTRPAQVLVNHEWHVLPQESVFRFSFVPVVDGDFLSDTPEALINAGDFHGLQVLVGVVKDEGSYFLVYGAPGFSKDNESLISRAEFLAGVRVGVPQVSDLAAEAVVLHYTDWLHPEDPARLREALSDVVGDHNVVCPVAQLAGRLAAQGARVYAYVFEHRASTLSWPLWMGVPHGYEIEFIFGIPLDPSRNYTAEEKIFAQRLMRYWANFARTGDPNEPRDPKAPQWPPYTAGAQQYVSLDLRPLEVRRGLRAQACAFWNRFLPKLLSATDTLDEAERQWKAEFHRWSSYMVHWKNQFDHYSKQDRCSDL

In the case of `CC[N+](CC)(CCCCCn1c(=O)ccn(CCCCCn2c(C)cc(=O)n(C)c2=O)c1=O)Cc1ccccc1[N+](=O)[O-]` [1a], the “AChE Selectivity” value (human AChE [1]) is listed as 112,676, the IC50 (human AChE [1]) is listed as 0.4 ± 0.03 nM and the IC50 (BChE from human plasma [2]) is listed as 40 µM.

In the case of `CC[N+](CC)(CCCCCn1c(=O)ccn(CCCCCCn2c(C)cc(=O)n(C)c2=O)c1=O)Cc1ccccc1[N+](=O)[O-]` [1b], the “AChE Selectivity” value (human AChE [1]) is given as 60,000, the IC50 (human AChE [1]) is given as 0.1 ± 0.01 nM and the IC50 (BChE from human plasma [2]) is given as 6 ± 0.43 µM.

For `CC[N+](CC)(CCCCCn1c(=O)ccn(CCCn2c(C)cc(=O)n(C)c2=O)c1=O)Cc1ccccc1C(F)(F)F` [1c], the “AChE Selectivity” value (human AChE [1]) is given as 220,000, the IC50 (human AChE [1]) is given as 2 ± 0.2 nM and the IC50 (BChE from human plasma [2]) is given as 440 µM.

In the case of `CC[N+](CC)(CCCCCn1c(=O)ccn(CCCCn2c(C)cc(=O)n(C)c2=O)c1=O)Cc1ccccc1C(F)(F)F` [1d], the “AChE Selectivity” value (human AChE [1]) is listed as 200,000, the IC50 (human AChE [1]) is listed as 1 ± 0.1 nM and the IC50 (BChE from human plasma [2]) is listed as 200 µM.

For `CC[N+](CC)(CCCCCn1c(=O)ccn(CCCCCn2c(C)cc(=O)n(C)c2=O)c1=O)Cc1ccccc1C(F)(F)F` [1e], the “AChE Selectivity” value (human AChE [1]) is given as 120,000, the IC50 (human AChE [1]) is given as 0.5 ± 0.03 nM and the IC50 (BChE from human plasma [2]) is given as 60 µM.

In the case of `CC[N+](CC)(CCCCCn1c(=O)ccn(CCCCCCn2c(C)cc(=O)n(C)c2=O)c1=O)Cc1ccccc1C(F)(F)F` [1f], the “AChE Selectivity” value (human AChE [1]) is given as 200,000, the IC50 (human AChE [1]) is given as 0.2 ± 0.01 nM and the IC50 (BChE from human plasma [2]) is given as 40 µM.

`CC[N+](CC)(CCCCCn1c(=O)ccn(CCCn2c(C)cc(=O)n(C)c2=O)c1=O)Cc1ccccc1C#N` [2a, 1,3-{(3,6-Dimethyluracil-1-yl)-[3-(5-o-nitrilebenzyl(diethyl)ammonio)pentyl)-uracil-1-yl]}propane bromide] gave an IC50 (human AChE [3]; [7]) of 0.3 ± 0.03 nM and an IC50 (BChE from human plasma [4]; [8]) of 370 µM.

In the case of `CC[N+](CC)(CCCCCn1c(=O)ccn(CCCCCn2c(C)cc(=O)n(C)c2=O)c1=O)Cc1ccccc1C#N` [2c, 1,5-{(3,6-Dimethyluracil-1-yl)-[3-(5-o-nitrilebenzyl(diethyl)ammonio)pentyl)-uracil-1-yl]}pentane bromide], the “AChE Selectivity” value (human AChE [3]; Table 1) is reported as 388,888, the IC50 (human AChE [3]; [7]) is reported as 0.2 ± 0.06 nM and the IC50 (BChE from human plasma [4]; [8]) is reported as 70 µM.

With `CC[N+](CC)(CCCCCn1c(=O)ccn(CCCCCCn2c(C)cc(=O)n(C)c2=O)c1=O)Cc1ccccc1C#N` [2d, 1,6-{(3,6-Dimethyluracil-1-yl)-[3-(5-o-nitrilebenzyl(diethyl)ammonio)pentyl)-uracil-1-yl]}hexane bromide] the “AChE Selectivity” value (human AChE [3]; Table 1) was 57,034, the IC50 (human AChE [3]; [7]) was 0.5 ± 0.16 nM and the IC50 (BChE from human plasma [4]; [8]) was 30 µM.

For `CCN(CCCCCn1c(=O)ccn(CCCn2c(C)cc(=O)n(C)c2=O)c1=O)Cc1ccccc1C#N` [3a], the “AChE Selectivity” value (human AChE [3]; Table 2) was 11,290, the IC50 (human AChE [3]; Table 2, human AChE) was 6.1 ± 0.7 nM and the IC50 (BChE from human plasma [4]; Table 2, human BuChE) was 69.1 µM.

In the case of `CCN(CCCCCn1c(=O)ccn(CCCCn2c(C)cc(=O)n(C)c2=O)c1=O)Cc1ccccc1C#N` [3b], the “AChE Selectivity” value (human AChE [3]; Table 2) is reported as 6090, the IC50 (human AChE [3]; Table 2, human AChE) is reported as 7.9 ± 0.25 nM and the IC50 (BChE from human plasma [4]; Table 2, human BuChE) is reported as 48.3 µM.

`CCN(CCCCCn1c(=O)ccn(CCCCCCn2c(C)cc(=O)n(C)c2=O)c1=O)Cc1ccccc1C#N` [3d] gave an IC50 (human AChE [3]; Table 2, human AChE) of 5.4 ± 0.7 nM and an IC50 (BChE from human plasma [4]; Table 2, human BuChE) of 95 µM.

In the case of `CN1[C@@H]2CC[C@H]1C[C@@H](OC(=O)C(CO)c1ccccc1)C2` (stereo partly drawn) [Atropine, atropine, reference compound], the “n/N (mice surviving 5 days after POX poisoning / total)” value ([5]; atropine 15 mg/kg i.p. 1 min after POX 0.42 mg/kg i.p., no pre-treatment) is reported as 6/12 and the “relative risk of death (RRD)” value ([5]; atropine within 1 min after POX) is reported as 0.5.

With `COc1cc2c(cc1OC)C(=O)C(CC1CCN(Cc3ccccc3)CC1)C2` (stereo not drawn) [Donepezil, donepezil, reference compound] the “increase in the preference for the novel object compared to the scopolamine-treated group” value ([6]; donepezil 1 mg/kg i.p. 30 min prior to testing, scopolamine 1.5 mg/kg, p = 0.03) was 32.2%.

For `CCOP(=O)(OCC)Oc1ccc([N+](=O)[O-])cc1` [POX, paraoxon, reference compound], the “relative risk of death (RRD)” value ([5]; POX 0.42 mg/kg alone) was 1 and the “n/N (mice surviving 5 days after POX poisoning / total)” value ([5]; POX 0.42 mg/kg i.p. (2×LD50) alone) was 0/12.

For `COc1ccc2c3c1O[C@H]1C[C@@H](O)C=C[C@@]31CCN(C)C2` [galantamine], the “selectivity for AChE over BuChE” value (AChE) is given as 50 fold.

In the case of `CCN(C)C(=O)Oc1cccc([C@H](C)N(C)C)c1` [rivastigmine], the “inhibition profile (AChE vs BuChE)” value (AChE) is given as “non-selective”.

With `CN1[C@@H]2C[C@@H](OC(=O)[C@H](CO)c3ccccc3)C[C@H]1[C@@H]1O[C@@H]12` [scopolamine, reference compound] the “reduction of the preference for the novel object compared to the control group” value ([6]; scopolamine 1.5 mg/kg i.p. 50 min prior to testing, p = 0.0001) was 34.1%.
